Values quoted from earlier work in US7105698B2, “Process for the separation of R(-)-and S(+)-5-[2-[[2-(2-ethoxyphenoxy)ethyl]amino]propyl]-2- methoxybenzenesulfonamide” (Ragactives, S.L., priority 2002, dated 2006).

Settings: ratio R(−)-I versus S(+)-I; prior studies

## CCOc1ccccc1OCCN[C@H](C)Cc1ccc(OC)c(S(N)(=O)=O)c1 [R(−)-I, R(−)-5-[2-[[2-(2-ethoxyphenoxy)ethyl]amino]propyl]-2-methoxybenzenesulfonamide]
  pharmacological action of R(−)-I relative to its S(+)-I enantiomer: up to 320 times
